From patent publication US7214690B2, “Tricyclic quinolinone and tricyclic quinoline androgen receptor modulator compounds and methods” (Ligand Pharmaceuticals Incorporated, priority 2001, dated 2007)

Legend:
Assay type in all cases: cell-based
PR = biological target: T1, PR (Homo sapiens, UniProt P06401); assay: co-transfection assay, PR
T1 construct: expressed in transfected cells; host or cells: background cell substantially devoid of endogenous IRs (CV-1 described for the co-transfection assay)
T1 sequence (P06401 1-933): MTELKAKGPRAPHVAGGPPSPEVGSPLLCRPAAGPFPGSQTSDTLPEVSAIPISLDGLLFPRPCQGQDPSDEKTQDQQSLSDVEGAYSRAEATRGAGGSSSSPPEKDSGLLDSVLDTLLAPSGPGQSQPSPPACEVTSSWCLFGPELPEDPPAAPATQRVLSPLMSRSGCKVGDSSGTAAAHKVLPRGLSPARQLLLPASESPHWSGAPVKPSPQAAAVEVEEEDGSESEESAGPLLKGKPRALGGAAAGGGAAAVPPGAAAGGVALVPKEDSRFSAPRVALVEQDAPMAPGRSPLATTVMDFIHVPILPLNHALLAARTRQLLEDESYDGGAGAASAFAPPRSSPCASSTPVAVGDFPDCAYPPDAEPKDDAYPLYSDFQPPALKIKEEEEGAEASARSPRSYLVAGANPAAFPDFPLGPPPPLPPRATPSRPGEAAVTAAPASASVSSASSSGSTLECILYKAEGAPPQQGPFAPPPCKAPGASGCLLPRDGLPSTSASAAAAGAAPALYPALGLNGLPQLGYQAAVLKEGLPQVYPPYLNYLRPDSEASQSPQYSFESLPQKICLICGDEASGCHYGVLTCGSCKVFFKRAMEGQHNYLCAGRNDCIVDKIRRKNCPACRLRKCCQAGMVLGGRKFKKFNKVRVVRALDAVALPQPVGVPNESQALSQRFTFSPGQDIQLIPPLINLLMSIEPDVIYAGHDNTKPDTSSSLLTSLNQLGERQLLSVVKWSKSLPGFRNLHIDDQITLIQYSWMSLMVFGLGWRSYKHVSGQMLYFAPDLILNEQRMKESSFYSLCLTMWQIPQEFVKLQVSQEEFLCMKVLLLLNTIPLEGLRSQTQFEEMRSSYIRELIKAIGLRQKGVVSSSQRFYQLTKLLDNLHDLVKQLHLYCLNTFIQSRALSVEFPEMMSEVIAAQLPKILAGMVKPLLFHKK
Procedure: (§1) CV-1 cells (African green monkey kidney fibroblasts) were cultured in the presence of Dulbecco's Modified Eagle Medium (DMEM) supplemented with 10% charcoal resin-stripped fetal bovine serum (CH-FBS) then transferred to 96-well microtiter plates one day prior to transfection.
(§2) Three to four replicates were used for each sample.
(§3) After 40 hours, the cells were washed with PBS, lysed with a Triton X-100-based buffer and assayed for LUC and β-Gal activities using a luminometer or spectrophotometer, respectively. For each replicate, the normalized response (NR) was calculated as: LUC response/β-Gal rate • where β-Gal rate=β-Gal/β-Gal incubation time.

ER = biological target: T2, ER (Homo sapiens, UniProt P03372); assay: co-transfection assay, ER
T2 construct: expressed in transfected cells; host or cells: background cell substantially devoid of endogenous IRs (CV-1 described for the co-transfection assay)
T2 sequence (P03372 1-595): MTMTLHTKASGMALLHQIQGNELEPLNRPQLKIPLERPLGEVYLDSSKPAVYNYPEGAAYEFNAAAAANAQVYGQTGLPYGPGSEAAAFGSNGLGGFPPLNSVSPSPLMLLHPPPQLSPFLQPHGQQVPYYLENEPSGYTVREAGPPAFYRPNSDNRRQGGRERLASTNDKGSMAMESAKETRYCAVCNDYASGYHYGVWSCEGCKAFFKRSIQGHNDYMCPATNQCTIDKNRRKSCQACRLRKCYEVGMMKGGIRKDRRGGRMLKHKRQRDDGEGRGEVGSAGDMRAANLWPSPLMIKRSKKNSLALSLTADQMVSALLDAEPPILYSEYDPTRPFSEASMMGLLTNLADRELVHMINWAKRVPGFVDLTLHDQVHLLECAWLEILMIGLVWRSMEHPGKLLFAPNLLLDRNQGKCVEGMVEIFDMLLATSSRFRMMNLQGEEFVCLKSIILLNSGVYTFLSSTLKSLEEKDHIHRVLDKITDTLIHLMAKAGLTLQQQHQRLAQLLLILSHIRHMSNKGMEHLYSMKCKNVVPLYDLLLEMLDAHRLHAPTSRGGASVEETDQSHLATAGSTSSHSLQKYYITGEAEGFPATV
Procedure: as §1, §2, §3

GR = biological target: T3, GR (Homo sapiens, UniProt P04150); assay: co-transfection assay, GR
T3 construct: expressed in transfected cells; host or cells: background cell substantially devoid of endogenous IRs (CV-1 described for the co-transfection assay)
T3 sequence (P04150 1-777): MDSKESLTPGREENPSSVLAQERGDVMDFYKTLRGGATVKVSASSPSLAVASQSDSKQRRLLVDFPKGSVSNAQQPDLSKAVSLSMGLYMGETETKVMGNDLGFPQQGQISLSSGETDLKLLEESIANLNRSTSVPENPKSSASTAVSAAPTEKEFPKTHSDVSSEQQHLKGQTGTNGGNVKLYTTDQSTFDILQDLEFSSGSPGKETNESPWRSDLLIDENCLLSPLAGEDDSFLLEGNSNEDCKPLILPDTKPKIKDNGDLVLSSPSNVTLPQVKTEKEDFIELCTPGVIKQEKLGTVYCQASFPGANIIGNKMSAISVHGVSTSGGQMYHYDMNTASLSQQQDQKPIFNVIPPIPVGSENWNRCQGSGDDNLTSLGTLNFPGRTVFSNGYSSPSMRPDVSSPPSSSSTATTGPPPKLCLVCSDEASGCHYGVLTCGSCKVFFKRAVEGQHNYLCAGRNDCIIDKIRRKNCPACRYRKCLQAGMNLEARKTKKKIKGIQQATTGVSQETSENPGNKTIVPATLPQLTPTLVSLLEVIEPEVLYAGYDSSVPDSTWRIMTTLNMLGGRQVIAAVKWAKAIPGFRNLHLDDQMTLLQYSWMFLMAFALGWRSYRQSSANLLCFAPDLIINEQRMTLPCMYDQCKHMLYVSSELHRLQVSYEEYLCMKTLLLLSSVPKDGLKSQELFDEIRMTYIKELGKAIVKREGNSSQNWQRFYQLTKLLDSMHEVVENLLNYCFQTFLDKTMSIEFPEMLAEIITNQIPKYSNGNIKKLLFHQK
Procedure: as §1, §2, §3

MR = biological target: T4, MR (Homo sapiens, UniProt P08235); assay: co-transfection assay, MR
T4 construct: expressed in transfected cells; host or cells: background cell substantially devoid of endogenous IRs (CV-1 described for the co-transfection assay)
T4 sequence (P08235 1-984): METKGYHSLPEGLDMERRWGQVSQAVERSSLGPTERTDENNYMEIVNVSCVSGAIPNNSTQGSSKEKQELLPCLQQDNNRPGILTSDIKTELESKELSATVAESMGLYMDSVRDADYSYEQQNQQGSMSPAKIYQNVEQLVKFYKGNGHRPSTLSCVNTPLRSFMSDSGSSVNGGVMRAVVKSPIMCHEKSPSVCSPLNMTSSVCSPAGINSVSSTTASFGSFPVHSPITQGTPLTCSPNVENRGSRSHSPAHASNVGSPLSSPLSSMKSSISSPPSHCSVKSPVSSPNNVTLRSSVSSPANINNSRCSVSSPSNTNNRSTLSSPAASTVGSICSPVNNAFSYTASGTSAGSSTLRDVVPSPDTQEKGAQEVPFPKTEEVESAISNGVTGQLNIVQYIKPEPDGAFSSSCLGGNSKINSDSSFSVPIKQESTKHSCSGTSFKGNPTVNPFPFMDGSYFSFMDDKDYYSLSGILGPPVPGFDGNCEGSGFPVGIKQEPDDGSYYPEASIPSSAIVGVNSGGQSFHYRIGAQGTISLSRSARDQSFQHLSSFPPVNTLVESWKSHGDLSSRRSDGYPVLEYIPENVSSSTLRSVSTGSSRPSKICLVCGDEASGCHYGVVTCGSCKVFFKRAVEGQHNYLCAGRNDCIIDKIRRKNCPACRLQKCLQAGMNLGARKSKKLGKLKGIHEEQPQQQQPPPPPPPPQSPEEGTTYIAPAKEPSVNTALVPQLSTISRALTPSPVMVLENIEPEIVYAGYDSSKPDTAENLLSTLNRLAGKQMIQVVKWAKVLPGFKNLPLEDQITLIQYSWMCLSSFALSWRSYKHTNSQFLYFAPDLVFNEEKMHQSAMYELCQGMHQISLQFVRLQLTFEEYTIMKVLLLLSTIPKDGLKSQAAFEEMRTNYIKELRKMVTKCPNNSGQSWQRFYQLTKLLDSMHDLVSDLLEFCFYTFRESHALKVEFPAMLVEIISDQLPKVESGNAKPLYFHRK
Procedure: as §1, §2, §3

CCN1c2ccc3[nH]c(=O)cc(C(F)(F)F)c3c2OC[C@H]1C [Compound 103, (3R)-4-Ethyl-2,3,4,7-tetrahydro-3-methyl-10-(trifluoromethyl)-8H-[1,4]oxazino[2,3-f]quinolin-8-one]
> 10 µM: EC50 (PR) | EC50 (ER) | IC50 (ER) | IC50 (GR) | IC50 (MR)

C[C@@H]1COc2c(ccc3[nH]c(=O)cc(C(F)(F)F)c23)N1 [Compound 101, (3R)-2,3,4,7-Tetrahydro-3-methyl-10-(trifluoromethyl)-8H-[1,4]oxazino[2,3-f]quinolin-8-one]
> 10 µM: EC50 (PR) | EC50 (ER) | IC50 (ER) | IC50 (GR) | IC50 (MR)
